# No end group written: not given here. CM‑Chitin = carboxymethyl chitin
# Key:
# fibronectin = experiment: Cell adhesion-inhibitory test against fibronectin (competitive assay, number of adhered cells); assay type: cell-based, human; details: endothelium cells of blood vessel, 37° C., one hour, 0 mg/ml control 160
# Excerpt: (§1) A method for determining the activity of the CM-chitin derivatives of the present invention for inhibiting adhesion of cells to fibronectin or vitronectin will be described below. The competitive assays used herein have widely been employed tin the field of biochemistry and are detailed in, for instance, "Method in Enzymology", 1981, 82, pp. 803-831; and J. P. KOKAI Nos. Hei 1-309682 and Hei 2-174797.
# (§2) Commercially available fibroneotin (derived from human; purchased from Seikaqaku Kogyo K. K.) and vitronectin (derived from human; purchased from Funakoshi Co., Ltd.) each was diluted to 1.0 μ1/ml and 2.0 μ1/ml with PBS (NaH2 PO4 0.005 M+NaCl 0.07 M), 0.5 ml of the resulting diluted solution was dispensed into a plastic plate having 24 wells and incubated at 37° C. overnight to perform coating of the plate. Then bovine serum albumin (BSA 1%) was added followed by incubation at 37° C. for one hour for inhibiting the occurrence of nonspecific adsorption, then washing with PBS in the usual manner and sufficient drainage to give an adsorption plate.
# (§3) A CM-chitin derivative obtained through lyophilization was diluted with Dulbecco's Modified Eagles Medium (hereunder referred to as "DMEM") to give solutions of the CM-chitin derivative having concentrations of 0, 0.25, 0.5, 1.0 and 1.5 mg/ml respectively. Each of the solutions (0.25 ml) was dispensed to the plate prepared above, 0.25 ml of a suspension of endothelium cells of blood vessel (4×10^6 cells/ml) was added to the plate and incubated at 37° C. for one hour to thus cause cohesion of the cells. The plate was washed three times with DMEM medium to remove non-adhesive cells, then the adhered cells were peeled off with a 0.025% EDTA trypsin solution and stained with a 2% Trypan Blue solution to determine the number of the adhered cells.
# vitronectin = experiment: Cell adhesion-inhibitory test against vitronectin (competitive assay, number of adhered cells); assay type: cell-based, human; details: endothelium cells of blood vessel, 37° C., one hour, 0 control 249
# Excerpt: as §1, §2
# as §3, with “A CM-chitin derivative obtained through lyophilization was diluted with Dulbecco's Modified Eagles Medium (hereunder referred to as "DMEM") to give solutions of the CM-chitin derivative having concentrations of 0, 0.25, 0.5, 1.0 and 1.5 mg/ml respectively.” left out
# [1] = tested on: human plasma rich in platelet; experiment: Platelet coagulation-inhibitory activity in vitro, transmittance by aggregometer; assay type: cell-based; details: 37° C., 3 minutes preincubation; for Platelet Coagulation-Inhibitory Action IC50, ADP Stimulation: ADP stimulation (50 μM ADP solution); for Platelet Coagulation-Inhibitory Action IC50, Collagen Stimulation: collagen stimulation (200 μg/ml collagen solution)
# Method: The platelet coagulation-inhibitory effect of the CM-chitin derivative of the present invention was assayed, in vitro, using human plasma rich in platelet. The experimental method will be described below.
# To fresh human blood, there was added 1/9 volume of a 3.8% sodium citrate solution, the resulting mixture was centrifuged (1000 rpm; for 10 minutes) and the upper layer was separated as a plasma rich in platelet. A lyophilized CM-chitin derivative was dissolved in physiological saline to give a plurality of solutions having various concentrations ranging from 0 to 1.5 mg/ml. Each of the solutions (25 μ1) was added to 200 µl of the plasma, incubated at 37° C. for 3 minutes, then a 50 μM of ADP (adenosine diphosphate) solution or a 200 μg/ml collagen solution was added to determine the extent of coagulation in terms of transmittance determined by an aggregometer.
# Rate of Coagulation Inhibition=(1-T/T .)×100%
# T . : transmittance observed when a salt of CM-chitin derivative was not added.
# T : transmittance observed when a salt of CM-chitin derivative was added.
# [2] = concentration 10 mg/ml (so in the source)
# [3] = concentration 50 mg/ml (so in the source)
# [4] = concentration 100 mg/ml (so in the source)
# [5] = concentration 300 mg/ml (so in the source)
"Platelet Coagulation-Inhibitory Action IC50, ADP Stimulation [1]","Platelet Coagulation-Inhibitory Action IC50, Collagen Stimulation [1]",Compound,Cell Adhesion-Inhibitory effect Against Fibronectin (number of adhered cells) (fibronectin; concentration 0.5 mg/ml),Cell Adhesion-Inhibitory effect Against Fibronectin (number of adhered cells) (fibronectin; concentration 1.0 mg/ml),Cell Adhesion-Inhibitory effect Against Fibronectin (number of adhered cells) (fibronectin; concentration 1.5 mg/ml),Cell Adhesion-Inhibitory effect Against Fibronectin (number of adhered cells) (fibronectin; concentration .25 mg/ml),Cell Adhesion-Inhibitory effect Against Vitronectin (number of adhered cells) (vitronectin; [2]),Cell Adhesion-Inhibitory effect Against Vitronectin (number of adhered cells) (vitronectin; [3]),Cell Adhesion-Inhibitory effect Against Vitronectin (number of adhered cells) (vitronectin; [4]),Cell Adhesion-Inhibitory effect Against Vitronectin (number of adhered cells) (vitronectin; [5])
27 µg/mL,22 µg/mL,"N=C(N)NCCC[C@H](N)C(=O)NCC(=O)N[C@@H](CC(=O)O)C(=O)O [ArgGlyAsp, H--(Arg--Gly--Asp)--OH, reference compound]",162 cell/well,141 cell/well,83 cell/well,157 cell/well,171 cell/well,132 cell/well,104 cell/well,73 cell/well
21 µg/mL,10 µg/mL,CM-Chitin Arg-Gly-Asp-Ser (RGDS; also: conjugated to CM-chitin) [CM--chitin derivative-18],101 cell/well,75 cell/well,52 cell/well,133 cell/well,125 cell/well,83 cell/well,56 cell/well,44 cell/well
30 µg/mL,16 µg/mL,CM-Chitin Gly-Arg-Gly-Asp-Ser (GRGDS; also: conjugated to CM-chitin) [CM--chitin derivative-7],98 cell/well,84 cell/well,71 cell/well,119 cell/well,143 cell/well,85 cell/well,79 cell/well,55 cell/well
15 µg/mL,10 µg/mL,"CM-Chitin-Arg-Gly-Asp-Ser ({CM‑Chitin}-RGDS) [CM--chitin derivative-1, rate of introduction of Arg-Gly-Asp-Ser fragments about 10%]",106 cell/well,79 cell/well,69 cell/well,131 cell/well,148 cell/well,89 cell/well,72 cell/well,41 cell/well
19 µg/mL,5 µg/mL,CM-Chitin-Gly-Arg-Gly-Asp-Ser-Pro [CM--chitin derivative-19],106 cell/well,79 cell/well,56 cell/well,127 cell/well,130 cell/well,92 cell/well,63 cell/well,39 cell/well
14 µg/mL,5 µg/mL,CM-chitin-Arg-Gly-Asp-Ser-Gly-NH2 ({CM‑Chitin}-RGDSG-NH2; also: conjugated to CM-chitin) [CM--chitin derivative-17],84 cell/well,61 cell/well,35 cell/well,99 cell/well,114 cell/well,76 cell/well,48 cell/well,33 cell/well
17 µg/mL,12 µg/mL,Itaconyl Derivative of CM-Chitin Arg-Gly-Asp-Ser (RGDS; also: conjugated to itaconyl CM-chitin) [CM--chitin derivative-5],105 cell/well,86 cell/well,72 cell/well,136 cell/well,129 cell/well,91 cell/well,80 cell/well,48 cell/well
21 µg/mL,7 µg/mL,Maleyl Derivative of CM-Chitin Arg-Gly-Asp-Ser (RGDS; also: conjugated to maleyl CM-chitin) [CM--chitin derivative-3],100 cell/well,77 cell/well,55 cell/well,123 cell/well,141 cell/well,87 cell/well,69 cell/well,49 cell/well
29 µg/mL,15 µg/mL,Phthaloyl derivative of CM-Chitin Arg-Gly-Asp-Ser (RGDS; also: conjugated to phthaloyl CM-chitin) [CM--chitin derivative-4],121 cell/well,80 cell/well,67 cell/well,141 cell/well,145 cell/well,90 cell/well,67 cell/well,45 cell/well

# Reference: patent US5298488A, “CM-chitin derivatives and use thereof” (Fuji Photo Film Co., Ltd., priority 1990, dated 1994)
